ChEMBL document CHEMBL4706640, “Structure-Based Drug Design and Synthesis of PI3Kα-Selective Inhibitor (PF-06843195)” (J Med Chem, 2021)
Values after ≈ are worked out from the molar mass of the structure shown.

Experiments:
[1] = tested on: Rat1; assay: Selectivity index, ratio of IC50 for recombinant human N-terminal Myr signal and C-terminal Flag-tagged PI3K p110delta to IC50 for recombinant human N-terminal Myr signal and C-terminal Flag-tagged PI3K p110alpha expressed in rat Rat1 cells; assay type: cell-based
[2] = tested on: Rat1; assay: Selectivity index, ratio of IC50 for recombinant human N-terminal Myr signal and C-terminal Flag-tagged PI3K p110beta to IC50 for recombinant human N-terminal Myr signal and C-terminal Flag-tagged PI3K p110alpha expressed in rat Rat1 cells; assay type: cell-based
[3] = target: T1, Phosphatidylinositol 4,5-bisphosphate 3-kinase catalytic subunit delta isoform (Homo sapiens, UniProt O00329); assay: Inhibition of recombinant human N-terminal Myr signal and C-terminal Flag-tagged PI3K p110delta expressed in rat Rat1 cells; assay type: cell-based
T1 sequence (O00329 whole entry): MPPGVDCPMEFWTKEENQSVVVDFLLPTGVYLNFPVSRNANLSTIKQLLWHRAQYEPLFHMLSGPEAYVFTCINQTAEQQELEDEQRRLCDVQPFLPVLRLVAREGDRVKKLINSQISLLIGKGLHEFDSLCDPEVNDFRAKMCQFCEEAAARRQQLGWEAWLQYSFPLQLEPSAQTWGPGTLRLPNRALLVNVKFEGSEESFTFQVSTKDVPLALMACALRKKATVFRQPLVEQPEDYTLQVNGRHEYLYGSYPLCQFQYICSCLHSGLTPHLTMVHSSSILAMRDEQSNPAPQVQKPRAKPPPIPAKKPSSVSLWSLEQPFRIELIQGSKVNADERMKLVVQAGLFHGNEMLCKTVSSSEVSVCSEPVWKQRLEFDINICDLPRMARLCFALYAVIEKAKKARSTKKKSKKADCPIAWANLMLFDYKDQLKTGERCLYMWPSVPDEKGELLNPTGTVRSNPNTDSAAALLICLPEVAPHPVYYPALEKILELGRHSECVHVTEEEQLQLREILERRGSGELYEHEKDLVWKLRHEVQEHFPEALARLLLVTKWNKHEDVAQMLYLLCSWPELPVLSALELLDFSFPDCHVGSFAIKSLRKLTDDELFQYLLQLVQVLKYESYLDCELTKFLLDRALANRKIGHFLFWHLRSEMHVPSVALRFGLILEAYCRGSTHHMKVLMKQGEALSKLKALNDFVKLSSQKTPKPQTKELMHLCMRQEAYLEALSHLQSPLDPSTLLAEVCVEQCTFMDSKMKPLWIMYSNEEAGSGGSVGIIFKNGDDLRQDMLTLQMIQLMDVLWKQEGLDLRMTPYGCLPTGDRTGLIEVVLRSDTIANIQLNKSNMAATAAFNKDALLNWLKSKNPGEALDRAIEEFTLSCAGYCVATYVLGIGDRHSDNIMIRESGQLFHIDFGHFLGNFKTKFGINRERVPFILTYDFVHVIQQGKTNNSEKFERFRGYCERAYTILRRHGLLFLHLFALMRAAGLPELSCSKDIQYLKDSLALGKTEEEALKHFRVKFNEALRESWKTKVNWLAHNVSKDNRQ

[4] = target: Phosphatidylinositol 4,5-bisphosphate 3-kinase catalytic subunit beta isoform (Homo sapiens, UniProt P42338); assay: Inhibition of recombinant human N-terminal Myr signal and C-terminal Flag-tagged PI3K p110beta expressed in rat Rat1 cells; assay type: cell-based
Phosphatidylinositol 4,5-bisphosphate 3-kinase catalytic subunit beta isoform, sequence (P42338 whole entry, canonical isoform): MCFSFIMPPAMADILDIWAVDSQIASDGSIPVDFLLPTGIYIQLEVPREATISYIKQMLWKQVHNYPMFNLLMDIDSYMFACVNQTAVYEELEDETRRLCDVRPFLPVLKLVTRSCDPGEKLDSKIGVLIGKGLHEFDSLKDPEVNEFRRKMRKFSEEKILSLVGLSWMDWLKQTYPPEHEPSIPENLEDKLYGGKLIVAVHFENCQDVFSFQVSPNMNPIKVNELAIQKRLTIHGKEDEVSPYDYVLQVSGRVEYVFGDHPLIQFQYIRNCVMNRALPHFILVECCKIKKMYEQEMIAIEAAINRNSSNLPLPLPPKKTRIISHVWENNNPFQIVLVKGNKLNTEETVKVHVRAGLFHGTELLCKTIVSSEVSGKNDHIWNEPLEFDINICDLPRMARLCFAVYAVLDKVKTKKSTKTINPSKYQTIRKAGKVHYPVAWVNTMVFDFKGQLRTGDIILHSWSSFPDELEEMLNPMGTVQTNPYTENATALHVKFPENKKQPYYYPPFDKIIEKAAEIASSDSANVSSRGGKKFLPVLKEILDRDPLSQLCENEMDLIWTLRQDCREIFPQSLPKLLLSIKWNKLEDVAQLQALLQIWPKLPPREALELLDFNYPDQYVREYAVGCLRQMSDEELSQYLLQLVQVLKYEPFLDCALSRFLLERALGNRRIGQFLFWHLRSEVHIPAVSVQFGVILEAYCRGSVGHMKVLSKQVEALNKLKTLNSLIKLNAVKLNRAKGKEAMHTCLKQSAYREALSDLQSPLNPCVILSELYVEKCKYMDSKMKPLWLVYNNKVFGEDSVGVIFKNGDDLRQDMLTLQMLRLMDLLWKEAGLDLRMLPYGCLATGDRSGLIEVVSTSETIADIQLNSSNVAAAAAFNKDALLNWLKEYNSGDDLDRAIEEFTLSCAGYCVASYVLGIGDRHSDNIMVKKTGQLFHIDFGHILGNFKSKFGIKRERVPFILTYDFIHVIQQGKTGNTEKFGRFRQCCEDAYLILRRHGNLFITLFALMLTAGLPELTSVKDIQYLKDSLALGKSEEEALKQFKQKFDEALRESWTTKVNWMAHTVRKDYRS

[5] = target: Phosphatidylinositol 4,5-bisphosphate 3-kinase catalytic subunit alpha isoform (Homo sapiens, UniProt P42336); assay: Inhibition of recombinant human N-terminal Myr signal and C-terminal Flag-tagged PI3K p110alpha expressed in rat Rat1 cells; assay type: cell-based
Phosphatidylinositol 4,5-bisphosphate 3-kinase catalytic subunit alpha isoform, sequence (P42336 whole entry, canonical isoform): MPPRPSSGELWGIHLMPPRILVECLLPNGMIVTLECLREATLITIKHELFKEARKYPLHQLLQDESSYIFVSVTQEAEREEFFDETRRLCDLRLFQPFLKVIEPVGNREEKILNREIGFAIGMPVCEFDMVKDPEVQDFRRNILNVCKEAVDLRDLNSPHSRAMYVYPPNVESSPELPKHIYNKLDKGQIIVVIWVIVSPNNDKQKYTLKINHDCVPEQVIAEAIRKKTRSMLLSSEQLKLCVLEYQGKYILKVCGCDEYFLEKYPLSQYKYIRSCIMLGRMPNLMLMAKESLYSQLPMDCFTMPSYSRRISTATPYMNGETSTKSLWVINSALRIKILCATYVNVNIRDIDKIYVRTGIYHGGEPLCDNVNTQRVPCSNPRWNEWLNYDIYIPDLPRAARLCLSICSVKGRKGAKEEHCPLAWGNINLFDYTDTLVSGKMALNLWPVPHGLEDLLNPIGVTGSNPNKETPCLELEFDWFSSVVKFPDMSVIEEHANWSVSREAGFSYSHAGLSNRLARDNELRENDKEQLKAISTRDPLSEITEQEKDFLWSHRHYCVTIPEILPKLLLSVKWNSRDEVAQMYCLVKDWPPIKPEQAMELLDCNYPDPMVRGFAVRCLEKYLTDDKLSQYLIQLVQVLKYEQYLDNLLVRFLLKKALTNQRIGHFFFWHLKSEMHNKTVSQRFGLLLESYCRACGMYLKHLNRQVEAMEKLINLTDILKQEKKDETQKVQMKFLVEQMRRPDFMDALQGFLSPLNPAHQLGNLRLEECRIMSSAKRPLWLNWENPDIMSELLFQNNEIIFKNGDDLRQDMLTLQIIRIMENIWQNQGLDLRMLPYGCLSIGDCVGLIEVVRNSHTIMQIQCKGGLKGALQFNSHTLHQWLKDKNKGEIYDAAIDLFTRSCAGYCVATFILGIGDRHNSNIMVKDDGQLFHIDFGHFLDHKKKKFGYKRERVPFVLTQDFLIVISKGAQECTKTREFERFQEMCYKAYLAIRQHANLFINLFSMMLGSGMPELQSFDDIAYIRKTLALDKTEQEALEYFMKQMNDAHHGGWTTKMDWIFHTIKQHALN

[6] = target: PI3-kinase p110-alpha/p85-alpha (Homo sapiens, UniProt P42336); assay: Inhibition of recombinant human full-length PI3K p110alpha/p85alpha (322 to 600) expressed in baculovirus infected Sf21 cells using phosphatidylinositol 4,5-bisphosphate as substrate preincubated for 15 mins followed by addition of ATP and measured after 30 mins by fluorescence polarisation assay
PI3-kinase p110-alpha/p85-alpha, sequence (P27986 whole entry): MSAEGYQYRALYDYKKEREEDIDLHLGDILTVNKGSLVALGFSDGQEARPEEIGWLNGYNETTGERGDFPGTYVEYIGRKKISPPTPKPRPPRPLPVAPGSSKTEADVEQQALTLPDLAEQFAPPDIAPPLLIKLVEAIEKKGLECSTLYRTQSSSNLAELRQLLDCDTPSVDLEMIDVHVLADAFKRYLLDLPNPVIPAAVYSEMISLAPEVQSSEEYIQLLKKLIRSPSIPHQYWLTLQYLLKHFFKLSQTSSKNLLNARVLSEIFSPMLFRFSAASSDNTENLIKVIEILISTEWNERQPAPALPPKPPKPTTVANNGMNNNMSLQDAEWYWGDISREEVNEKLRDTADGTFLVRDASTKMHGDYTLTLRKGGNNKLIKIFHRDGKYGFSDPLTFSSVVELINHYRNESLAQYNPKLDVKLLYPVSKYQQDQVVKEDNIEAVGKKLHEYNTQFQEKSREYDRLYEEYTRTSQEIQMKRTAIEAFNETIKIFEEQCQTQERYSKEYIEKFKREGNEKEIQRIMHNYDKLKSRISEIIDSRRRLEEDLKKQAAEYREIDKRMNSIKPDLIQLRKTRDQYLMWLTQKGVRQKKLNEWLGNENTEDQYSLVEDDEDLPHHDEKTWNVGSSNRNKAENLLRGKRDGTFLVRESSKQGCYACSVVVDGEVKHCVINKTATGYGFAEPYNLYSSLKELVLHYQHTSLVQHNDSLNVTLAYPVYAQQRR
PI3-kinase p110-alpha/p85-alpha, sequence (P42336 whole entry): as the sequence (P42336 whole entry, canonical isoform) above

[7] = target: PI3K p110 beta/p85 alpha (Homo sapiens, UniProt P42338); assay: Inhibition of recombinant human PI3K p110beta/p85alpha using phosphatidylinositol 4,5-bisphosphate as substrate preincubated for 15 mins followed by addition of ATP and measured after 30 mins by fluorescence polarisation assay; assay type: protein-complex assay
PI3K p110 beta/p85 alpha, sequence (P27986 whole entry): as the sequence (P27986 whole entry) above
PI3K p110 beta/p85 alpha, sequence (P42338 whole entry): as the sequence (P42338 whole entry, canonical isoform) above

[8] = target: PI3-kinase p110-delta/p85-alpha (Homo sapiens, UniProt O00329); assay: Inhibition of recombinant human PI3K p110delta/p85alpha using phosphatidylinositol 4,5-bisphosphate as substrate preincubated for 15 mins followed by addition of ATP and measured after 30 mins by fluorescence polarisation assay; assay type: protein-complex assay
PI3-kinase p110-delta/p85-alpha, sequence (P27986 whole entry, one chain of several): as the sequence (P27986 whole entry) above

[9] = Distribution coefficient, logD of compound at pH 7.4; assay type: physicochemical; conditions: octanol/water
[10] = Apparent intrinsic clearance in human liver microsomes; assay type: ADME, Microsome; conditions: read-out: CLH(app)
[11] = Passive permeability of compound in RRCK cells; assay type: ADME, cell-based, Canis lupus familiaris, MDCKII-LE; conditions: dog, MDCK; read-out: permeability
[12] = Kinetic solubility of compound; assay type: physicochemical; conditions: read-out: Kinetic_solubility
[13] = species: Homo sapiens; assay: Selectivity index, ratio of Ki for recombinant human PI3K p110beta/p85alpha to Ki for recombinant human full-length PI3K p110alpha/p85alpha (322 to 600) using phosphatidylinositol 4,5-bisphosphate as substrate
[14] = species: Homo sapiens; assay: Selectivity index, ratio of Ki for recombinant human PI3K p110delta/p85alpha to Ki for recombinant human full-length PI3K p110alpha/p85alpha (322 to 600) using phosphatidylinositol 4,5-bisphosphate as substrate

Row | IC50 [3] [nM] | IC50 [4] [nM] | Ki [6] [nM] | solubility kinetic [12] [µM] | SMILES | Ratio IC50 [1] | Ratio IC50 [2] | IC50 [5] [nM] | Ki [7] [nM] | Ki [8] [nM] | logD [9] | microsomal CLint [10] [µL/min/mg] | Papp [11] [×10⁻⁶ cm/s] | Ratio Ki [13] | Ratio Ki [14]
1 |  |  |  | 210 (≈ 54.2 µg/mL) | Nc1ncc(-c2ccnc(N3CCOCC3)n2)cn1 |  |  |  | 15 | 81 | 1.5 |  | 28 |  | 
2 | 300 | 360 | < 0.018 | 42 (≈ 18.8 µg/mL) | COC(=O)N1CC[C@](CO)(Nc2nc(N3CCOCC3)nc(-c3cnc(N)nc3)c2F)C1 |  |  | 47 | 5 | < 0.28 | 1.6 | < 8 | 6.2 |  | 
3 | 1200 | 4600 |  | 460 (≈ 217 µg/mL) | CC(C)(C)OC(=O)N1CC[C@](CO)(Nc2cc(-c3cnc(N)nc3)nc(N3CCOCC3)n2)C1 |  |  |  | 54 | 2.1 | 2.7 | 140 | 18 |  | 
4 |  |  | 2.1 | 430 (≈ 158 µg/mL) | Nc1ncc(-c2nc(N3CCOCC3)nc3c2CCN3[C@H]2CCNC2)cn1 |  |  |  | 17 | 40 | -0.74 | 13 | 1.9 |  | 
5 | 76 | 150 | < 0.029 | 540 (≈ 249 µg/mL) | C[C@]1(N2CCc3c(-c4cnc(N)nc4)nc(N4CCOCC4)nc32)CCN(S(C)(=O)=O)C1 |  |  | 34 | 9.1 | 0.26 | 1.6 | 36 | 26 |  | 
6 | 13 | 45 | < 0.023 | 490 (≈ 216 µg/mL) | COC(=O)N1CC[C@](C)(N2CCc3c(-c4cnc(N)nc4)nc(N4CCOCC4)nc32)C1 |  |  | 5 | 0.79 | < 0.28 | 2.6 | 29 | 27 |  | 
7 | 17 | 260 | < 0.018 | 500 (≈ 226 µg/mL) | CC(C)C(=O)N1CC[C@](C)(N2CCc3c(-c4cnc(N)nc4)nc(N4CCOCC4)nc32)C1 | 3 | 37 | 6.9 | 17 | < 0.28 | 2.4 | 46 | 36 |  | 
8 | 44 | 170 | < 0.018 | 510 (≈ 243 µg/mL) | CNS(=O)(=O)N1CC[C@](C)(N2CCc3c(-c4cnc(N)nc4)nc(N4CCOCC4)nc32)C1 |  |  | 27 | 4.9 | < 0.28 | 1.9 | 20 | 24 |  | 
9 | > 10000 | > 10000 |  | 540 (≈ 239 µg/mL) | CC(C)C(=O)N1CC[C@](CO)(Nc2cc(-c3cnc(N)nc3)nc(N3CCOCC3)n2)C1 |  |  |  | 19 | < 0.28 | 1.4 | 17 | 0.19 |  | 
10 |  |  | 0.58 | 390 (≈ 166 µg/mL) | CNC(=O)N1CC[C@H](N2CCc3c(-c4cnc(N)nc4)nc(N4CCOCC4)nc32)C1 |  |  |  | 24 | 3.7 | 1.3 | < 8 | 6.1 |  | 
11 | 110 | 410 | 0.084 | 460 (≈ 202 µg/mL) | CNC(=O)N1CC[C@](C)(N2CCc3c(-c4cnc(N)nc4)nc(N4CCOCC4)nc32)C1 |  |  | 73 | 24 | 0.72 | 1.7 | < 11 | 13 |  | 

Row | SMILES | IC50 [3] [nM] | IC50 [4] [nM] | Ki [6] [nM] | solubility kinetic [12] [µM] | Ratio IC50 [1] | Ratio IC50 [2] | IC50 [5] [nM] | Ki [7] [nM] | Ki [8] [nM] | logD [9] | microsomal CLint [10] [µL/min/mg] | Papp [11] [×10⁻⁶ cm/s] | Ratio Ki [13] | Ratio Ki [14]
12 | CC(C)(N)C(=O)N1CC[C@](C)(N2CCc3c(-c4cnc(N)nc4)nc(N4CCOCC4)nc32)C1 | 120 | 330 | 0.023 | 460 (≈ 215 µg/mL) | 5 | 13 | 25 | 13 | 2.5 | 0.4 | < 9 | 4.2 |  | 
13 | COC(=O)N1CC[C@H](N2CCc3c(-c4cnc(N)nc4)nc(N4CCOCC4)nc32)C1 |  |  |  | 56 (≈ 23.9 µg/mL) |  |  |  | 36 | 9.6 | 1.9 | < 8 | 20 |  | 
14 | CC(=O)N1CC[C@@](C)(N2CCc3c(-c4cnc(N)nc4)nc(N4CCOCC4)nc32)C1 | 74 | 95 | 0.078 | 520 (≈ 221 µg/mL) |  |  | 35 | 6.7 | 1.2 | 1.6 | < 8 | 16 |  | 
15 | CC(C)(O)C(=O)N1CC[C@](C)(N2CCc3c(-c4cnc(N)nc4)nc(N4CCOCC4)nc32)C1 | 150 | 1000 | 0.03 | 460 (≈ 216 µg/mL) |  |  | 53 | 46 | 6.7 | 2 | 16 | 25 |  | 
16 | CC(=O)N1CC[C@H](N2CCc3c(-c4cnc(N)nc4)nc(N4CCOCC4)nc32)C1 |  |  |  | 530 (≈ 218 µg/mL) |  |  |  | 20 | 22 | 1.1 | < 8 | 13 | 17 | 19
17 | CC(C)(C)OC(=O)N1CC[C@](C)(Nc2cc(-c3cnc(N)nc3)nc(N3CCOCC3)n2)C1 | 460 | 5000 |  | 270 (≈ 123 µg/mL) |  |  | 110 | 68 | 5.1 | 3.8 | 110 | 11 |  | 
18 | COC(=O)N1CC[C@](CO)(Nc2cc(-c3cnc(N)nc3)nc(N3CCOCC3)n2)C1 | 2300 | 1800 |  | 19 (≈ 8.18 µg/mL) |  |  | 91 | 1.7 | < 0.28 | 1.5 | 13 | 1 |  | 
19 | Nc1ncc(-c2cc(N[C@@]3(CO)CCN(C(=O)OCC(F)F)C3)nc(N3CCOCC3)n2)cn1 | 1000 | 1900 |  | 9.9 (≈ 4.76 µg/mL) |  |  | 52 | 4 | < 0.28 | 1.7 | 17 | 3.9 |  | 
20 | CNS(=O)(=O)N1CC[C@H](N2CCc3c(-c4cnc(N)nc4)nc(N4CCOCC4)nc32)C1 |  |  | 0.12 | 380 (≈ 175 µg/mL) |  |  | 130 | 16 | 4.5 | 1.4 | < 11 | 16 | 125 | 37
21 | CS(=O)(=O)N1CC[C@H](N2CCc3c(-c4cnc(N)nc4)nc(N4CCOCC4)nc32)C1 |  |  | 0.15 | 61 (≈ 27.2 µg/mL) |  |  |  | 16 | 4.5 | 1.3 | < 8 | 18 |  | 
22 | CS(=O)(=O)N1CC[C@](CO)(Nc2cc(-c3cnc(N)nc3)nc(N3CCOCC3)n2)C1 | > 10000 | > 10000 |  |  |  |  | 1300 | 11 | < 0.28 | 0.79 | < 8 | 0.22 |  | 
